Drawing on BindingDB's records for doi:10.1021/jm0702579 (National Cancer Institute-Frederick, 2007), this text covers Ki for one compound.

The assay can be described thus: Ratio of Ki for mouse wild type C1b domain of PKCdelta to Ki for mouse PKCdelta C1b Q27E mutant.

With `CCCC(=O)O[C@@H]1[C@@H](C)[C@@]2(O)[C@@H](C=C(CO)C[C@]3(O)C(=O)C(C)=C[C@@H]23)[C@@H]2C(C)(C)[C@]12OC(=O)CCC` [(1aR,1bS,4aR,7aS,7bS,8R,9R,9aS)-4a,7b-dihydroxy-3-(hydroxymethyl)-1,1,6,8-tetramethyl-5-oxo-1,1a,1b,4,4a,5,7a,7b,8,9-decahydro-9aH-cyclopropa[3,4]benzo[1,2-e]azulene-9,9a-diyl dibutanoate], the Ki came out at 19 nM.

For orientation: Ki means the equilibrium dissociation constant of an inhibitor or competing ligand from its target.
